These results are taken from PubChem BioAssay AID1850 (Southern Research Specialized Biocontainment Screening …, 2009).

SMILES strings stand for the structures. Where “and” joins values, the source holds several entries; their conditions need not be identical. Equal values may be shown once.

The assay concerns Salmonella Typhi PhoP-promoter GFP reporter, fluorescence, 4 h. Put plainly: PhoP regulon inhibitors, Salmonella typhi PhoP promoter GFP reporter, confirmatory (AID 1850).
Take `Cc1ccc(O)c(Nc2c3ccccc3nc3ccccc23)c1`: the IC50 was 27.7 µM.

For the compound `N=c1c2c(n(Cc3ccc(Cl)cc3)c3c1CCC3)CCC2`, the IC50 was 80.3 µM.

Turning to `O=C(Nc1nnc(-c2cccs2)o1)c1cccc(C(F)(F)F)c1`, the IC50 was 22.9 µM.

As for `CN1CCN(c2ccc(NC(=O)c3ccc(-c4ccc(Br)cc4)o3)cc2)CC1`, the IC50 is 28.9 µM.

As for `O=C(/C=C(\O)c1ccccc1)C(=O)NNC(=O)c1ccccc1`, the half-inhibitory concentration (IC50) was 23.8 µM.

Turning to `O=C(O)/C(=C\C(=O)c1ccccc1)Nc1ccccc1`, the IC50 was 39.4 µM.

Take `Cc1ccc(C(=O)N/C(=C\c2ccc(-c3ccc(Br)cc3)o2)C(=O)NCCCN(C)C)cc1`: the IC50 was 37.1 µM.

In the case of `CCCCCCCCCCCCCCCC[n+]1cccc(C(=O)N(CC)CC)c1`, the half-inhibitory concentration (IC50) was 41.3 µM.

`CCC(C)N1CCC2(CC1)N=c1c(c3c4c5c(C)c(O)c3c(O)c1=NC(=O)C(C)=CC=C[C@H](C)[C@H](O)[C@@H](C)[C@@H](O)[C@@H](C)[C@H](OC(C)=O)[C@H](C)[C@@H](OC)C=CO[C@@](C)(O5)C4=O)N2` (stereo partly drawn): the IC50 was 2.54 µM.

For `C#CCOCCOCCOCCNc1nc(N2CCN(C(=O)CCCCCCCCCCNC(=O)[C@H](CO)n3cc(CCCCCN)nn3)CC2)nc(N2CCN(C(=O)CCCCCCCCCCNC(=O)[C@H](CCCN=C(N)N)n3cc(C[C@@H](C)CC)nn3)CC2)n1`, the 50% inhibitory concentration (IC50) is 24.3 µM.

In the case of `CCN1CCN(C(=O)c2cc3cc(Cl)ccc3[nH]2)CC1`, the IC50 is 89.5 µM.

Turning to `CSc1ccc2c(c1)C(N1CCN(C)CC1)Cc1ccccc1S2` (stereo not drawn), the concentration for half-maximal inhibition (IC50) is 39.7 µM.

On to `CCCCCCCC(=O)N/N=C/c1ccc([N+](=O)[O-])o1`, for which the 50% inhibitory concentration (IC50) is 26.7 µM.

In the case of `O=C(N/N=C/c1ccccc1O)C1SCCCS1`, the IC50 was 87.9 µM.

Consider `Cc1cc(C2CCCCC2)n(O)c(=O)c1`, for which the 50% inhibitory concentration (IC50) was 17.2 µM.

Consider `COc1ccc2c(C(=O)CCl)c[nH]c2c1`, for which the concentration for half-maximal inhibition (IC50) is 66.9 µM.

On to `CCC(O)(CC)C(=O)N/N=C/c1cc(Br)cc(Br)c1O`, for which the IC50 is 77.9 µM.

Consider `NC[C@@H]1O[C@H](C23CC4CC(CC(C4)C2)C3)Cc2c1ccc(O)c2O`, for which the half-maximal inhibitory concentration (IC50) is 50.1 µM.

As for `CN1CC(C(=O)c2ccc(Cl)cc2)C(c2ccc(Cl)cc2Cl)C1` (stereo not drawn), the IC50 was 37.4 µM.

Consider `CC1=NN(c2nc3ccccc3[nH]2)C(=O)C1Cc1ccccc1` (stereo not drawn), for which the IC50 was 50.3 µM.

Turning to `COc1cc(C(=O)O/N=C2\C=CC(=O)C(C)=C2)cc(OC)c1OC`, the IC50 was 121 µM.

Consider `O=[N+]([O-])c1cccc2c(N3CCCC3)ccnc12`, for which the 50% inhibitory concentration (IC50) is 26.6 µM.

On to `Cc1ccc(Nc2cc(C)c3c(O)cccc3n2)cc1C`, for which the 50% inhibitory concentration (IC50) was 6.64 µM.

On to `COc1c2ccccc2nc2ccccc12`, for which the IC50 is 25.6 µM.

Consider `Clc1ccc(CNCc2cccs2)cc1Cl`, for which the IC50 is 32 µM.

As for `CN(C)CCNC(=O)c1ccc(COc2ccc(Cl)cc2Cl)cc1`, the half-inhibitory concentration (IC50) is 125 µM.

Turning to `Cc1ccc(-c2csc(NC(=O)C[n+]3cc(-c4ccccc4)n4c3CCC4)n2)cc1`, the half-inhibitory concentration (IC50) is 20.7 µM.

As to `C#CCOCCOCCOCCNc1nc(N2CCN(C(=O)CCCCCCCCCCNC(=O)[C@H](CCCCN)n3cc(C)nn3)CC2)nc(N2CCN(C(=O)CCCCCCCCCCNC(=O)[C@H](CCCN=C(N)N)n3cc(C[C@@H](C)CC)nn3)CC2)n1`, the IC50 was 32.5 µM.

Consider `CCc1cccc2c1Sc1ccccc1CC2N1CCNCC1` (stereo not drawn), for which the IC50 is 50.8 µM.

Consider `CC[C@H]1OC(=O)[C@H](C)[C@@H](O[C@H]2C[C@@](C)(OC)[C@@H](O)[C@H](C)O2)[C@H](C)[C@@H](O[C@@H]2O[C@H](C)C[C@H](N(C)C)[C@H]2O)[C@](C)(O)C[C@@H](C)CN(C)[C@H](C)[C@@H](O)[C@]1(C)O`, for which the half-maximal inhibitory concentration (IC50) was 1.21 µM.

In the case of `CN1CCN(C(c2ccc(Cl)cc2)c2cc(Cl)c3cccnc3c2O)CC1` (stereo not drawn), the 50% inhibitory concentration (IC50) was 19.7 µM.

Take `CN1CCCN(C(c2ccccc2)c2ccc(Cl)cc2)CC1` (stereo not drawn): the half-maximal inhibitory concentration (IC50) was 86.8 µM.

With `Nc1cc(Cl)c2nonc2c1[N+](=O)[O-]`, the IC50 was 38.4 µM.

`O=C(NCCCN1CCN(c2ccc(F)cc2)CC1)Nc1ccc([N+](=O)[O-])cc1`: the IC50 is 76.1 µM.

With `N#C/C(N=Nc1ccccc1O)=N\Nc1ccccc1O`, the IC50 is 36.1 µM.

Regarding `CCc1ccc2c(c1)Sc1ccccc1CC2N1CCN(C)CC1` (stereo not drawn), the 50% inhibitory concentration (IC50) was 40.7 µM.

Take `CN1CCN(C2Cc3cc(F)ccc3Sc3ccc(Cl)cc32)CC1` (stereo not drawn): the concentration for half-maximal inhibition (IC50) was 62.1 µM.

For `O=C(Cc1ccc(Br)cc1)c1ccc(O)cc1O`, the half-inhibitory concentration (IC50) was 119 µM.

With `NC(=O)SCC(=O)Nc1ccc(Cl)c(Cl)c1`, the IC50 was 13.7 µM.

As for `CCCCCCCCCCOC(=O)Cn1c(COc2ccc(Cl)cc2)[n+](C)c2ccccc21`, the half-maximal inhibitory concentration (IC50) was 10.3 µM.

As to `Nc1c(Cl)ncnc1N/N=C/c1ccccn1`, the 50% inhibitory concentration (IC50) was 33.7 µM.

Regarding `Oc1ccccc1Nc1nc(NCc2ccco2)c2ccccc2n1`, the IC50 was 34.8 µM.

Take `COc1ccc(CNCCC(c2ccccc2)c2ccc3c(c2)OCO3)cc1` (stereo not drawn): the concentration for half-maximal inhibition (IC50) is 78.7 µM.

For the compound `NC(=NCCCCCCN=C(N)/N=C(\N)Nc1ccc(Cl)cc1)/N=C(\N)Nc1ccc(Cl)cc1`, the half-inhibitory concentration (IC50) was 5.4 µM and 7.69 µM and 5.26 µM.

As to `COc1ccc(/C=N/Nc2cc(C)nc3ccc(Br)cc23)cc1`, the IC50 was 19.1 µM.

Turning to `CCN1/C(=C/C(C)=C/c2sc3ccccc3[n+]2CC)Sc2ccccc21`, the half-inhibitory concentration (IC50) was 4.88 µM.

For the compound `Cc1cc(C)n(-c2nc(SCCN(C)C)c3c4c(sc3n2)CCCC4)n1`, the IC50 was 41.2 µM.

Turning to `CN1CCC(OC(=O)c2ccc(Br)cc2)CC1`, the IC50 is 65.4 µM.

As for `CC[n+]1c(/C=C/C=C/c2ccc(N(C)C)cc2)sc2ccccc21`, the concentration for half-maximal inhibition (IC50) is 39.2 µM.

With `Cc1ccc(C(=O)NNC(=S)NC(=O)COc2ccccc2)cc1`, the IC50 was 115 µM.

In the case of `CCOC(=O)N1CCN(CCC(=O)c2ccc(Br)cc2)CC1`, the IC50 is 94.5 µM.

Regarding `OCCN1CCN(CCCN2c3ccccc3Sc3ccc(C(F)(F)F)cc32)CC1`, the IC50 was 105 µM.

Take `O=C(CNCCC1=CCCCC1)Nc1ccc(N2CCCCCC2)cc1`: the half-maximal inhibitory concentration (IC50) is 29.6 µM.

Turning to `CCOC(=O)C1=C(c2ccccc2)NC(N)=NC1c1ccc(OCc2ccc(C(=O)OC)cc2)cc1` (stereo not drawn), the IC50 was 34.4 µM.

Consider `COc1cc([N+](=O)[O-])cc(/C=N/NC(=O)C(O)(c2ccccc2)c2ccccc2)c1O`, for which the IC50 is 107 µM.

Take `O=C(N/N=C/c1ccc([N+](=O)[O-])s1)C(O)c1ccccc1` (stereo not drawn): the half-maximal inhibitory concentration (IC50) is 39.4 µM.

Consider `CC(C)(c1ccccc1)c1ccc(OCCCN2CCNCC2)cc1`, for which the IC50 was 56.2 µM.

For `CCOc1cc(CNCCCN2CCOCC2)cc(Br)c1OCC(=O)Nc1cccc(C(F)(F)F)c1`, the 50% inhibitory concentration (IC50) was 84.6 µM.

Take `CCCCCCCCC[n+]1cccc2c3ccccc3ccc21`: the IC50 was 18.6 µM.

`CCOc1ccc(Nc2nc(N)c3ccccc3n2)cc1`: the IC50 was 19.7 µM.

In the case of `CN1CCN(C2Cc3ccc(Cl)cc3Sc3ccc(F)cc32)CC1` (stereo not drawn), the concentration for half-maximal inhibition (IC50) was 37.8 µM.

As to `CC(NCc1ccccc1O)C12CC3CC(CC(C3)C1)C2` (stereo not drawn), the IC50 is 34.2 µM.

Consider `CN1CCc2nc(SCC(=O)Nc3cccc(F)c3)c(C#N)c(-c3cccs3)c2C1`, for which the half-inhibitory concentration (IC50) is 86.2 µM.

Regarding `Cc1cc(C)n2nc(S(=O)(=O)Nc3c(Cl)cccc3Cl)nc2n1`, the IC50 is 63.5 µM.

As for `O=C(CCN1CCN(C(=O)c2ccccc2)CC1)c1ccc(Br)cc1`, the IC50 is 117 µM.

For the compound `COc1cc([N+](=O)[O-])cc(/C=N/NC(=O)CSc2ccccn2)c1O`, the IC50 was 127 µM.

Turning to `CCn1nc(C(=O)O)c(=O)c2cc3c(cc21)OCO3`, the IC50 was 34.6 µM.

Regarding `COc1ccc2[nH]c3c(C)c4ccncc4c(C)c3c2c1`, the IC50 was 20.5 µM.

As for `CN1CCN(c2c(F)cc3c(=O)c(C(=O)O)cn4c3c2SCC4)CC1`, the 50% inhibitory concentration (IC50) was 2.46 µM and 3.26 µM.

For `CC[C@H]1OC(=O)[C@H](C)[C@@H](O[C@H]2C[C@@](C)(OC)[C@@H](O)[C@H](C)O2)[C@H](C)[C@@H](O[C@@H]2O[C@H](C)C[C@H](N(C)C)[C@H]2O)[C@](C)(O)C[C@@H](C)[C@@H]2N[C@@H](COCCOC)O[C@H]([C@H]2C)[C@]1(C)O`, the IC50 was 8.02 µM.

For `Cc1ccc(S(=O)(=O)NNc2ccccc2)c(C)c1`, the IC50 was 38.3 µM.

Regarding `O=C(Nc1ccncc1)Nc1ccc(Cl)cc1`, the IC50 was 32.8 µM.

`Cc1ccc(CNCCC2=CCCCC2)cc1`: the 50% inhibitory concentration (IC50) is 46.1 µM.

Consider `CCN1CCN(CCNC(=O)c2ccc3c(c2)N(Cc2ccc(F)cc2)C(=O)/C(=C/c2ccccc2)S3)CC1`, for which the half-inhibitory concentration (IC50) is 44.8 µM.

For the compound `N=c1n(Cc2ccc(Cl)cc2)c2ccccc2n1CC(O)COc1ccccc1` (stereo not drawn), the IC50 was 55.4 µM.

Regarding `CC(C(=O)NC1CCS(=O)(=O)C1)N1C(=O)/C(=C/c2ccc(Cl)cc2)SC1=S` (stereo not drawn), the IC50 is 22.2 µM.

Turning to `CCn1cc(C(=O)O)c(=O)c2cc(F)c(N3CCN(C(=S)Nc4ccccc4OC)CC3)cc21`, the IC50 is 11.1 µM.

Consider `C#CCOCCOCCOCCNc1nc(N2CCN(C(=O)[C@H](Cc3cc4ccccc4[nH]3)n3cc([C@@H](N)C(C)CC)nn3)CC2)nc(N2CCN(C(=O)[C@H](Cc3cc4ccccc4[nH]3)n3cc([C@@H](N)CC(C)C)nn3)CC2)n1` (stereo partly drawn), for which the half-maximal inhibitory concentration (IC50) is 70 µM.

Take `Oc1ccc(C[C@@H]2CNCCN2CCC23CC4CC(CC(C4)C2)C3)cc1`: the IC50 is 71.5 µM.

On to `Cc1ccc(C)c(Nc2cc(C)nc3ccccc23)c1`, for which the IC50 is 51.5 µM.

For the compound `CCCCCNC(=O)c1cn(CC)c2cc(N3CCN(C)CC3)c(F)cc2c1=O`, the IC50 was 98 µM.

Consider `CCCCc1ccc(NC2=NCCCS2)cc1`, for which the IC50 is 140 µM.

As for `O=S1(=O)CC=C(CSC(=S)NC2CCS(=O)(=O)C2)C1` (stereo not drawn), the IC50 was 78.4 µM.

As for `Fc1ccc(Nc2ccnc(Nc3ccc(F)cc3)n2)cc1`, the IC50 is 20 µM.

Turning to `CC(C)Oc1ccc(Cc2cnc(N)nc2N)cc1`, the 50% inhibitory concentration (IC50) was 67.5 µM.

Consider `CCCCCN=C(N)N/N=C/c1c[nH]c2ccc(OC)cc12`, for which the IC50 was 38 µM.

In the case of `Clc1cc(Br)ccc1OCCCNCc1ccccc1`, the IC50 is 36.5 µM.

For `COc1cc(CNCCO)cc(Cl)c1OCc1ccc(Cl)cc1Cl`, the IC50 is 38 µM.

Regarding `Oc1ccccc1-c1cc(C(F)(F)C(F)F)[nH]n1`, the IC50 was 80.3 µM.

As for `Oc1ccc(/C=N/Nc2nccnc2Cl)c(O)c1`, the IC50 is 70.4 µM.

Turning to `C#CCOCCOCCOCCNc1nc(N2CCN(C(=O)CCCCCCCCCCNC(=O)[C@H](CCCCN)n3cc(CCO)nn3)CC2)nc(N2CCN(C(=O)CCCCCCCCCCNC(=O)[C@H](CCCCN)n3cc(C[C@@H](C)CC)nn3)CC2)n1`, the IC50 was 31.9 µM.

Regarding `CCn1cc(C(=O)NCCN(C)C)c(=O)c2cc(F)c(N3CCN(C)CC3)cc21`, the 50% inhibitory concentration (IC50) was 23.2 µM.

Consider `O=c1[nH]c(=S)ccn1C1OC(CO)C(O)C1O` (stereo not drawn), for which the 50% inhibitory concentration (IC50) is 28.6 µM.

The term IC50 denotes the concentration that gives 50% inhibition.
